{
  "source": "patent US20030168224A1",
  "about": "“Novel phosphorous-nitrogen compounds used as fireproofing agents in theroplastic molding materials and the production thereof” (priority 2000, published 2003)",
  "origin": "cited, not measured here",
  "key": {"[1]": {"details": "prior-art product"}, "[2]": {"details": "prior-art product", "remark": "listed apart in the source"}},
  "data": [
    {"smiles": "N.O=C1NC(=O)NP(=S)(S)N1", "note": "[ammonium 4,6-dioxo-2-thiooxohexahydro-1,3,5,2-λ^5-triazaphosphorinane-2-thiolate]", "values": [
      {"measurement": "solubility in hot water", "setting": "[1]", "result": "highly soluble"},
      {"measurement": "decomposition temperature", "setting": "[2]", "result": 230, "unit": "°C"}
    ]}
  ]
}
